{"source": "paper PMC6424464", "about": "“Multiple functional neurosteroid binding sites on GABAA receptors” (PLoS Biology, 2019)", "key": {"[1]": {"target": "T1, GABAA receptor β3 subunit (Homo sapiens, UniProt P14867+P28472)", "T1 construct": "gene GABRB3; α1His-FLAG β3 receptor in HEK-293 cell membranes; adduct in TM3 peptide 280-313; with GABAA receptor α1 subunit (GABRA1)", "T1 sequence (P28472 26-473)": "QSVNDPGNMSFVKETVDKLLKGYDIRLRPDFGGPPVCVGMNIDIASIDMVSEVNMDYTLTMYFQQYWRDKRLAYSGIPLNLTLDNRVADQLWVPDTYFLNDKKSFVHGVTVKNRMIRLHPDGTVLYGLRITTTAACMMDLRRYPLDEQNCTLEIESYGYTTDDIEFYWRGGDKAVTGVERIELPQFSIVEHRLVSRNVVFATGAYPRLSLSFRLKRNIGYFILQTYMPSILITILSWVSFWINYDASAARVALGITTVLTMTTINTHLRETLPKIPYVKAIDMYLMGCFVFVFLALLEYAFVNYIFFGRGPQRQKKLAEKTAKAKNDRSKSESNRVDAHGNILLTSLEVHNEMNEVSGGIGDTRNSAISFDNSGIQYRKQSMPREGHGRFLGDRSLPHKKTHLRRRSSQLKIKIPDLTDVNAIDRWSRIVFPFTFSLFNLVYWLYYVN", "T1 sequence (P14867 28-456)": "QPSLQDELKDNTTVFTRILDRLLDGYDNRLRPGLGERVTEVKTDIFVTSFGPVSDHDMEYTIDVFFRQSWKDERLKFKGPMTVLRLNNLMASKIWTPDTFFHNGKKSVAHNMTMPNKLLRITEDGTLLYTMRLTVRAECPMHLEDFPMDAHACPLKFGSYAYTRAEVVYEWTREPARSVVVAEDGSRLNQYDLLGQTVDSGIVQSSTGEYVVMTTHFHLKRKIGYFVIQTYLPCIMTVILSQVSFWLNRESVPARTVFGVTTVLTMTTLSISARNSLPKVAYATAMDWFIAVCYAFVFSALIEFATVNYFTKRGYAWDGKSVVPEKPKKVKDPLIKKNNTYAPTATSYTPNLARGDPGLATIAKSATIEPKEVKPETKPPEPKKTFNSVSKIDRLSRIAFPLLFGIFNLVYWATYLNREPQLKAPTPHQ", "experiment": "photoaffinity labeling with middle-down MS, competed by allopregnanolone; EC50 from [3H]muscimol binding enhancement (whole α[…]β[…] receptor)"}, "[2]": {"target": "T2, GABAA receptor α1 subunit (Homo sapiens, UniProt P14867)", "T2 sequence (P14867 28-456)": "T1 sequence (P14867 28-456)", "T2 sequence (P28472 26-473 partner)": "T1 sequence (P28472 26-473)", "experiment": "photoaffinity labeling ([…]) with middle-down MS; EC50 from [3H]muscimol binding enhancement (whole α[…]β[…] receptor)", "design": "gene GABRA1; α1His-FLAG β3 receptor in HEK-293 cell membranes; adduct in TM4 peptide 398-423; with GABAA receptor β3 subunit (GABRB3)"}, "[3]": {"target": "T3, α1β3 GABAA receptor (β3 subunit) (Homo sapiens, UniProt P14867+P28472)", "T3 sequence (P28472 26-473)": "T1 sequence (P28472 26-473)", "T3 sequence (P14867 28-456)": "T1 sequence (P14867 28-456)", "experiment": "competition of KK123, KK200 and KK202 photolabeling on β[…]; [3H]muscimol binding enhancement", "design": "gene GABRB3; α1His-FLAG β3 receptor in HEK-293 cell membranes; with GABAA receptor α1 subunit (GABRA1)"}, "[4]": {"target": "T2, GABAA receptor α1 subunit", "experiment": "competition of KK123 photolabeling at α1-Y415; [3H]muscimol binding enhancement; oocyte electrophysiology with site mutants", "design": "gene GABRA1; α1His-FLAG β3 receptor in HEK-293 cell membranes; with GABAA receptor β3 subunit (GABRB3)"}, "[5]": {"target": "T4, GABAA receptor β3 subunit (Homo sapiens, UniProt P28472)", "T4 construct": "gene GABRB3; α1His-FLAG β3 receptor in HEK-293 cell membranes; adduct in TM3 peptide 278-313; with GABAA receptor α1 subunit (GABRA1)", "T4 sequence (P28472 26-473)": "T1 sequence (P28472 26-473)", "T4 sequence (P14867 28-456 partner)": "T1 sequence (P14867 28-456)", "experiment": "photoaffinity labeling with middle-down MS, competed by allopregnanolone; EC50 from [3H]muscimol binding enhancement (whole α[…]β[…] receptor)"}, "[6]": {"target": "T3, α1β3 GABAA receptor (β3 subunit)", "experiment": "two-electrode voltage clamp, potentiation and direct activation", "assay_type": "cell-based", "design": "gene GABRB3; α1β3 receptors expressed in X. laevis oocytes; with GABAA receptor α1 subunit (GABRA1)"}, "[7]": {"target": "T5, GABAA receptor β3 subunit (Homo sapiens, UniProt P28472)", "T5 construct": "gene GABRB3", "experiment": "biochemical"}, "[8]": {"target": "T2, GABAA receptor α1 subunit", "experiment": "biochemical", "design": "gene GABRA1"}}}
{"molecule": "C[C@]12CC[C@@H](O)CC1CCC1C2CC[C@@]2(C)C1CC[C@@H]2OCc1ccc(C2(C(F)(F)F)N=N2)cc1", "note": "(some centres unmarked) [KK200]", "values": [{"measurement": "EC50", "setting": "[1]", "result": "0.54 ± 0.18", "unit": "µM"}, {"measurement": "EC50", "setting": "[2]", "result": "0.54 ± 0.18", "unit": "µM"}]}
{"molecule": "CC(=O)[C@H]1CC[C@H]2[C@@H]3CC[C@H]4C[C@H](O)CC[C@]4(C)[C@H]3CC[C@]12C", "note": "[AlloP, 3α-hydroxy-5α-pregnan-20-one]", "values": [{"measurement": "EC50", "setting": "[3]", "result": "3.9 ± 5.6", "unit": "µM"}, {"measurement": "EC50", "setting": "[4]", "result": "3.9 ± 5.6", "unit": "µM"}]}
{"molecule": "C#CCO[C@H]1CCC2C3CCC4C[C@H](OCc5ccc(C6(C(F)(F)F)N=N6)cc5)CC[C@]4(C)C3CC[C@@]21C", "note": "(some centres unmarked) [KK202]", "values": [{"measurement": "EC50", "setting": "[5]", "result": "1.1 ± 0.27", "unit": "µM"}]}
{"molecule": "CC(C)c1cccc(C(C)C)c1O", "note": "[propofol]", "values": [{"measurement": "two-electrode voltage clamp, potentiation and direct activation", "setting": "[6]", "result": "Propofol action was not different between the mutant and wild-type receptors, indicating a selective effect on neurosteroid action"}]}
{"molecule": "C#CCCO[C@H]1C[C@]2(C)C3CC[C@@]4(C)C(CC[C@@H]4OC)C3CC3(N=N3)C2C[C@@H]1O", "note": "(some centres unmarked) [KK123]", "values": [{"measurement": "EC50", "setting": "[7]", "result": "1.6 ± 0.2", "unit": "µM"}, {"measurement": "EC50", "setting": "[8]", "result": "1.6 ± 0.2", "unit": "µM"}]}
